Measurements reported in PMC2726796 (Journal of the American Chemical Society, 2008).

What was measured:
KtzS = molecular target: T1, KtzS (Kutzneria sp. 744, UniProt A8CF73); assay: flavin reductase activity of purified enzyme; assay type: biochemical
T1 sequence (A8CF73 1-174): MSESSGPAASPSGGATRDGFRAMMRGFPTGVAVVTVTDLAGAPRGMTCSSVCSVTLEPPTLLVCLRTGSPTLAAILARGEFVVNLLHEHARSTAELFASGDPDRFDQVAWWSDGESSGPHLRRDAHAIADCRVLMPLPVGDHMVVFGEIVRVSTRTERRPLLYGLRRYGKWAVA

[1] = substrate: N[C@@H](Cc1c[nH]c2c(Cl)cccc12)C(=O)O; assay: coupled halogenation assay with flavin reductase; assay type: biochemical, Kutzneria sp. 744; conditions: FAD, NADH, excess KtzS or SsuE, chloride, O2
[2] = substrate: N[C@@H](Cc1c[nH]c2ccccc12)C(=O)O; assay: coupled halogenation assay with flavin reductase; assay type: biochemical, Kutzneria sp. 744; conditions: FAD, NADH, excess KtzS or SsuE, chloride, O2

Molecule: Cc1cc2nc3c(=O)[nH]c(=O)nc-3n(C[C@H](O)[C@H](O)[C@H](O)COP(=O)(O)OP(=O)(O)OC[C@H]3O[C@@H](n4cnc5c(N)ncnc54)[C@H](O)[C@@H]3O)c2cc1C [FAD]
- flavin reductase activity of purified enzyme (KtzS; NADH as reductant): shown to be an NADH-utilizing FAD reductase

Molecule: NC(=O)C1=CN([C@@H]2O[C@H](COP(=O)(O)OP(=O)(O)OC[C@H]3O[C@@H](n4cnc5c(N)ncnc54)[C@H](O)[C@@H]3O)[C@@H](O)[C@H]2O)C=CC1 [NADH]
- flavin reductase activity of purified enzyme (KtzS; FAD as acceptor): shown to be an NADH-utilizing FAD reductase

B1: KtzR (Kutzneria sp. 744) (protein)
chain: MVIVGGGTAGWMTAAYLKTAFGDRLSITVVESSRIGTIGVGEATFSDIQHFFQFLNLREQDWMPACNATYKLGIRFENWRHVGHHFYQPFEQIRPVYGFPLTDWWLHDAPTDRFDTDCFVMPNLCEAGRSPRHLDGTLADEDFVEEGDELANRTMSEHQGKSQFPYAYHFEAALLAKFLTGYAVDRGVEHVVDDVLDVRLDQRGWIEHVVTAEHGEIHGDLFVDCTGFRGLLLNKALGVPFVSYQDTLPNDSAVALQVPLDMQRRGIVPNTTATAREAGWIWTIPLFGRVGTGYVYAKDYLSPEEAERTLREFVGPAAADVEANHIRMRIGRSQESWRNNCVAIGLSSGFVEPLESTGIFFIHHAIEQLVKHFPAADWNPKSRDMYNSAVAHVMDGIREFLVIHYRGAARADNQYWRDTKTRPLPDGLAERIECWQTQLPDTETIYPYYHGLPPYSYMCILMGGGAIRTPASAALALTDQGAAQKEFAAVRDRAAQLRDTLPSHYEYLARMRGLDV
- Km [1]: 114 µM
- Km [2]: 808 µM
